Reference: patent US20070059632A1, “Method of manufacturing a semiconductor device” (priority 2003, published 2007)

Key:
Format in all cases: physicochemical
[1] = Alkali developability; parameters: key: A: the resist film dissolved completely and disappeared; C: the resist film remained not dissolved even in a slight amount; settings: tested on the corresponding polyphenol compound A before introducing the acid-dissociating group; film immersed in 2.38% aqueous TMAH for 10 s
Description: (5) Alkali Developability
A polyphenol compound A corresponding to each compound before introducing the acid-dissociating functional group was examined for its developability with an alkali developing solution.
A 10% by weight solution of each polyphenol compound A in PGMEA was spin-coated using a spin coater, to form a resist film of about 0.2 μm thick. After heating on a hot plate for 3 min at 110° C., the resist film was immersed in a 2.38% aqueous solution of TMAH for 10 s. The results were rated as “A” when the resist film dissolved completely and disappeared, and “C” when the resist film remained not dissolved even in a slight amount.

[2] = Solubility of compound in safety solvent; settings: safety solvent (PGMEA or EL) at 23° C.
Description: (1) Solubility of Compound in Safety Solvent
Each compound was tested for its solubility in safety solvent (PGMEA or EL) at 23° C. The solubility was rated as “A” when dissolved in an amount of 5% by weight or more, “B” when dissolved in an amount of 0.1% by weight or more but less than 5% by weight, and “C” when not dissolved in an amount of 0.1% by weight or more.

[3] = Inhibition of dissolution in alkali developing solution; parameters: key: A: no change was visually noticed in the state of film; C: the surface was roughened or a part of the film was lost because of dissolution; settings: resist film immersed in 2.38% aqueous solution of TMAH for 3 min
Description: (3) Inhibition of Dissolution in Alkali Developing Solution
The resist film formed in the evaluation 2 was immersed in a developing solution (2.38% aqueous solution of TMAH) for 3 min. The results were rated as “A” when no change was visually noticed in the state of film, and “C” when the surface was roughened or a part of the film was lost because of dissolution.

CCOC(C)Oc1ccc(C(C)(c2ccc(O)c(C)c2)c2ccc3ccccc3c2)cc1C (stereo not drawn) [Compound 5-4]
(5) Alkali developability [1]: A | (1) Solubility in safety solvent [2]: A (dissolved in an amount of 5% by weight or more) | (3) Inhibition of dissolution in developing solution [3]: A
